Data from patent EP0097039A1, “5-(E-2-halovinyl)-2'-deoxyuridine derivatives, processes for their preparation, pharmaceutical compositions containing them, and their use in treating viral infections” (BEECHAM GROUP PLC, priority 1982, dated 1983).
Where “and” joins values, the source holds several entries; their conditions need not be identical. Equal entries are not always repeated. Where two headings read alike, the source gives them in different places.

Legend:
[1] = cytotoxicity (minimum toxic concentration) in the infected Vero cell cultures; format: cell-based, African Green Monkey; details: monkey; minimum concentration of test compound which caused cytotoxicity; Vero cells, highest concentration tested 100 µg/ml; read-out: MTD
Method: (§1) Vero (African Green Monkey Kidney) cells were grown to confluence in 24 well multidishes, each well being 1.6 cm in diameter. The cells were infected with Herpes Simplex type 1 virus (HFEM strain) and overlaid with 0.5 mL of 0.9% agarose (w/v) in maintenance medium in concentrations ranging from 100 to 0.03 µg/ml in half-log dilution steps, were added in 0.5 mL volume. The virus infected cultures were then incubated at 37 °C for 4 days before fixing in 4% formaldehyde solution and staining with carbolfuchsin.

[2] = tested on: Herpes Simplex type 1 virus (HFEM strain); experiment: plaque reduction assay in Vero cells infected with Herpes Simplex type 1 virus; format: cell-based
Method: as §1

[3] = tested on: Vero (African Green Monkey Kidney) cells; experiment: cytotoxicity (minimum toxic concentration) in the infected Vero cell cultures; format: cell-based; details: vero cells, 96 h
Method: as §1

[4] = Human alphaherpesvirus 1, 96 h, concentration causing 50% reduction in number of virus plaques, Vero cells, HSV-1 HFEM strain, 4 days at 37 C, read-out: PDD50 (the source's name)
[5] = Human alphaherpesvirus 1, 96 h, same PD50 expressed in µM, Vero cells, HSV-1 HFEM strain, 4 days at 37 C, read-out: PDD50 (the source's name)
[6] = concentration causing 50% reduction in number of virus plaques, Vero cells, HSV-1 HFEM strain, 4 days at 37 C
[7] = same PD50 expressed in µM, Vero cells, HSV-1 HFEM strain, 4 days at 37 C, read-out: PDD50 (the source's name)
[8] = Human alphaherpesvirus 1, Vero, 96 h, read-out: PDD50

| Compound | MCC at 96 h [1] | EC50 [2, 4] | EC50 [2, 5] | MTD [3] | PDD50 [2, 6] | EC50 [2, 7] | EC50 [2, 8] |
| --- | --- | --- | --- | --- | --- | --- | --- |
| COCC(=O)OC[C@H]1O[C@@H](n2cc(/C=C/Br)c(=O)[nH]c2=O)C[C@@H]1O [Example 27, 5-(E-2-Bromovinyl)-2'-deoxy-5'-O-(methoxyacetyl)uridine] | > 100 µg/mL | 0.12 µg/mL | 0.3 µM | – | – | – | – |
| O=C(COc1ccccc1)OC[C@H]1O[C@@H](n2cc(/C=C/Br)c(=O)[nH]c2=O)C[C@@H]1OC(=O)COc1ccccc1 [Example 36, 5-(E-2-Bromovinyl)-2'-deoxy-3',5'-di-0-(phenoxyacetyl)-uridine] | > 100 µg/mL | 0.57 µg/mL | 0.95 µM | – | – | – | – |
| O=C(OC[C@H]1O[C@@H](n2cc(/C=C/Br)c(=O)[nH]c2=O)C[C@@H]1OC(=O)[C@@H](O)Cc1ccccc1)[C@@H](O)Cc1ccccc1 [Example 19, E-5-(2-bromovinyl)-3', 5' -bis(L-2-hydroxy-3-phenylpropionyl)-2'-deoxyuridine] | > 100 µg/mL | 0.43 µg/mL | 0.68 µM | – | – | – | – |
| O=C(OC[C@H]1O[C@@H](n2cc(/C=C/Br)c(=O)[nH]c2=O)C[C@@H]1O)C(Cl)c1ccccc1 (stereo partly drawn) [Example 21] | > 100 µg/mL | 0.07 µg/mL | 0.14 µM | – | – | – | – |
| CC(C)(Oc1ccc(Cl)cc1)C(=O)OCC(=O)OC[C@H]1O[C@@H](n2cc(/C=C/Br)c(=O)[nH]c2=O)C[C@@H]1OC(=O)COC(=O)C(C)(C)Oc1ccc(Cl)cc1 [Example 9, E-5-(2 Bromovinyl)-3',5'-bis(2-(4-chlorophenoxy)-2-methylpropionyloxy-acetyl]-2'-deoxyuridine] | > 100 µg/mL | 1.47 µg/mL | 1.75 µM | – | – | – | – |
| O=C(O[C@H]1C[C@H](n2cc(/C=C/Br)c(=O)[nH]c2=O)O[C@@H]1CO)C(Cl)c1ccccc1 (stereo partly drawn) [Example 20, E-5-(2-Bromovinyl)-3'-(2-chlorophenylacetyl)-2'-deoxyuridine] | > 100 µg/mL | 0.18 µg/mL | 0.37 µM | – | – | – | – |
| CC(Cl)C(=O)OC[C@H]1O[C@@H](n2cc(/C=C/Br)c(=O)[nH]c2=O)C[C@@H]1OC(=O)C(C)Cl (stereo partly drawn) [Example 4] | > 100 µg/mL | 0.14 µg/mL | 0.27 µM | – | – | – | – |
| CC(C)C[C@H](O)C(=O)OC[C@H]1O[C@@H](n2cc(/C=C/Br)c(=O)[nH]c2=O)C[C@@H]1OC(=O)[C@@H](O)CC(C)C [Example 26, 5-(E-2-Bromovinyl)-2'-deoxy-3',5-di-O-(L-2-hydroxy-4-methylpentanoyl)uridine] | > 100 µg/mL | 0.16 µg/mL | 0.29 µM | – | – | – | – |
| CCC(Br)C(=O)OC[C@H]1O[C@@H](n2cc(/C=C/Br)c(=O)[nH]c2=O)C[C@@H]1O (stereo partly drawn) [Example 33, 5-(E-2-Bromovin^yl)-5'-0-(2-bromobutyryl)-2'-deoxyuridine] | > 100 µg/mL | 0.16 µg/mL | 0.37 µM | – | – | – | – |
| E-5-(2-Bromovinyl)-3'-trimethylsilyl-5'-(4-dipropylsulphamoylbenzoyl- oxyacetyl)-2'-deoxyuridine [Example 14] | – | – | – | >100 µg/mL | 0.32 µg/mL | 0.48 µM | – |
| CC(C)C[C@H](O[Si](C)(C)C(C)(C)C)C(=O)OC[C@H]1O[C@@H](n2cc(/C=C/Br)c(=O)[nH]c2=O)C[C@@H]1O [Example 31, 5-(E-2-Bromovinyl)-5'-O-(L-2-t-butyldimethylsilyloxy-4-methylpentanoyl)-2'-deoxyurudine] | > 100 µg/mL | – | – | – | – | – | 0.53 µg/mL and 940 nM |
| CC(C)(C)[Si](C)(C)O[C@@H](Cc1ccccc1)C(=O)OC[C@H]1O[C@@H](n2cc(/C=C/Br)c(=O)[nH]c2=O)C[C@@H]1OC(=O)[C@H](Cc1ccccc1)O[Si](C)(C)C(C)(C)C [Example 18, E-5-(2-Bromovinyl)-3',5'-bis(L-2-t-butyldimethylsilyloxy-3-penylpropionyl)-2'-deoxyuridine] | > 100 µg/mL | – | – | – | – | – | > 100 µg/mL |
| O=C(OC[C@H]1O[C@@H](n2cc(/C=C/Br)c(=O)[nH]c2=O)C[C@@H]1OC(=O)C(Cl)c1ccccc1)C(Cl)c1ccccc1 (stereo partly drawn) [Example 22] | > 100 µg/mL | 0.34 µg/mL | 0.53 µM | – | – | – | – |
| CCCN(CCC)S(=O)(=O)c1ccc(C(=O)OCC(=O)O[C@H]2C[C@H](n3cc(/C=C/Br)c(=O)[nH]c3=O)O[C@@H]2CO)cc1 [Example 8, E-5-(2-Bromovinyl)-3'-(4-dipropylsulphanoylbenzoyloxyacetyl)-2'-deoxyuridine] | > 100 µg/mL | 0.22 µg/mL | 0.33 µM | – | – | – | – |
| CCCN(CCC)S(=O)(=O)c1ccc(C(=O)OCC(=O)OC[C@H]2O[C@@H](n3cc(/C=C/Br)c(=O)[nH]c3=O)C[C@@H]2O)cc1 [Example 7, E-5-(2 Bromovinyl)-5'-(4-dipropylsulphamoylbenzoyloxyacetyl)-2'-deoxyuridine] | > 100 µg/mL | 0.24 µg/mL | 0.37 µM | – | – | – | – |
| CC(C)C[C@H](O)C(=O)OC[C@H]1O[C@@H](n2cc(/C=C/Br)c(=O)[nH]c2=O)C[C@@H]1O [Example 25, 5-(E-2-Bromovinyl)-2'-deoxy-5'-0-(L-2-hydroxy-4-methyl-pentanoyl)uridine] | > 100 µg/mL | 0.15 µg/mL | 0.34 µM | – | – | – | – |
| CC(C)C[C@H](O[Si](C)(C)C(C)(C)C)C(=O)OC[C@H]1O[C@@H](n2cc(/C=C/Br)c(=O)[nH]c2=O)C[C@@H]1OC(=O)[C@H](CC(C)C)O[Si](C)(C)C(C)(C)C [Example 32, 5-(E-2-Bromovilnyl)-3' ,5'-di-O-(L-2-t-butyldimethylsilyloxy-4-methylpentanoyl)-2'-deoxyuridirie] | > 100 µg/mL | – | – | – | – | – | 4.9 µg/mL and 6.2 µM |
| O=C(OC[C@H]1O[C@@H](n2cc(/C=C/Br)c(=O)[nH]c2=O)C[C@@H]1OC(=O)[C@@H](O)c1ccccc1)[C@@H](O)c1ccccc1 [Example 24, 5-(E-2-Bromovinyl)-2'-deoxy-3', 5'-di-O-[(2S)-hydroxyphenylacetyl]uridine] | > 100 µg/mL | 0.45 µg/mL | 0.75 µM | – | – | – | – |
| CCCN(CCC)S(=O)(=O)c1ccc(C(=O)OCC(=O)OC[C@H]2O[C@@H](n3cc(/C=C/Br)c(=O)[nH]c3=O)C[C@@H]2OC(=O)COC(=O)c2ccc(S(=O)(=O)N(CCC)CCC)cc2)cc1 [Example 6, E-5-(2-Bromovinyl)-3',5'-Bis (4-dipropylsulphamoylbenzoyloxyacetyl)-2'-deoxyuridine] | > 100 µg/mL | 2.03 µg/mL | 2.06 µM | – | – | – | – |
| E-5-(2-Bromovinyl)-5'-(L-2-t-butyldimethylsilyloxy-3-phenylpropionyl)-2'-deoxyuridine [Example 16] | – | – | – | >100 µg/mL | 0.63 µg/mL | 0.68 µM | – |
| CC(Cl)C(=O)OC[C@H]1O[C@@H](n2cc(/C=C/Br)c(=O)[nH]c2=O)C[C@@H]1O (stereo partly drawn) [Example 5] | > 100 µg/mL | 0.14 µg/mL | 0.33 µM | – | – | – | – |
| O=C(COc1ccccc1)OC[C@H]1O[C@@H](n2cc(/C=C/Br)c(=O)[nH]c2=O)C[C@@H]1O [Example 35, 5-(E-2-Bromovinyl)-2'-deoxy-5'-O-(phenoxyacetyl)uridine] | > 100 µg/mL | 0.18 µg/mL | 0.38 µM | – | – | – | – |
| O=C(CCl)OC[C@H]1O[C@@H](n2cc(/C=C/Br)c(=O)[nH]c2=O)C[C@@H]1OC(=O)CCl [Example 1, E-5-(2-Bromovinyl)-3',5'-bis (chloroacetyl)-2'-deoxyuridine] | > 100 µg/mL | 0.14 µg/mL | 0.29 µM | – | – | – | – |
| CCC(Br)C(=O)OC[C@H]1O[C@@H](n2cc(/C=C/Br)c(=O)[nH]c2=O)C[C@@H]1OC(=O)C(Br)CC (stereo partly drawn) [Example 34, 5-(E-2-Bromovinyl)-3'-5'-di-O-(2-bromobutyryl) -2'-deoxyuridine] | 100 µg/mL | 0.2 µg/mL | 0.32 µM | – | – | – | – |
| O=C(OC[C@H]1O[C@@H](n2cc(/C=C/Br)c(=O)[nH]c2=O)C[C@@H]1OC(=O)[C@H](O)c1ccccc1)[C@H](O)c1ccccc1 [Example 30] | > 100 µg/mL | 0.66 µg/mL | 1.1 µM | – | – | – | – |
| O=C(OC[C@H]1O[C@@H](n2cc(/C=C/Br)c(=O)[nH]c2=O)C[C@@H]1O)[C@H](O)c1ccccc1 [Example 29] | > 100 µg/mL | 0.22 µg/mL | 0.47 µM | – | – | – | – |
| O=C(CCl)OC[C@H]1O[C@@H](n2cc(/C=C/Br)c(=O)[nH]c2=O)C[C@@H]1O [Example 2, E-5-(2-Bromovinyl)-5'-chloroacetyl-2'-deoxyuridine] | > 100 µg/mL | 0.12 µg/mL | 0.29 µM | – | – | – | – |
| O=C(OC[C@H]1O[C@@H](n2cc(/C=C/Br)c(=O)[nH]c2=O)C[C@@H]1O)[C@@H](O)c1ccccc1 [Example 23, 5-(E-2-Bromovinyl)-2'-deoxy-5'-O-[(2S)-hydroxyphenylacetyl]uridine] | > 100 µg/mL | 0.16 µg/mL | 0.34 µM | – | – | – | – |
| CC(=O)OC(C)C(=O)OC[C@H]1O[C@@H](n2cc(/C=C/Br)c(=O)[nH]c2=O)C[C@@H]1O (stereo partly drawn) [Example 10, E-5-(2-Bromovinyl)-5'-(2-acetoxypropionyl)-2'-deoxyuridine] | > 100 µg/mL | 0.18 µg/mL | 0.4 µM | – | – | – | – |
| COCC(=O)OC[C@H]1O[C@@H](n2cc(/C=C/Br)c(=O)[nH]c2=O)C[C@@H]1OC(=O)COC [Example 28, 5-(E-2-Bromovinyl)-2'-deoxy-3',5'-di-O-(methoxyacetyl)-uridine] | > 100 µg/mL | 0.17 µg/mL | 0.36 µM | – | – | – | – |
